For data set [1] the following is noted: in vivo; cited from earlier work.
In another data set the test system is MIF. The experiment in a line: Open-label biomarker study in ALS subjects: serum MIF level before and after ibudilast. The class given is in vivo, human. The following applies: 19 ALS subjects who completed the study. As to the method: This was a multi-center, open-label study with a 6 weeks Screening Phase, 36 weeks Treatment Phase, and a Follow-up Phase 4 weeks after the last dose. Ibudilast was orally administered 50 mg b.i.d. for a total daily dose of 100 mg/day.
The objectives of the Study were (i) to measure the impact of ibudilast on [11C]-PBR28 uptake in the motor cortices and brain stem measured by positron emission tomography (PET) imaging at 24 weeks; (ii) to measure the impact of ibudilast on several markers of neuro-inflammation measured by blood biomarkers; and (iii) to evaluate safety and tolerability.
Out of the 46 patients screened, eleven (11) individuals were screen failures. Total of the 35 enrolled subjects were enrolled. Of the 35 enrolled subjects, 16 subjects (45.7%) terminated the study early, and 19 subjects completed the trial. Of these 16 early study withdrawals, 11 (68.8%) were attributed to AEs and 5 (31.2%) were attributed to consent withdrawn.
Serum samples for the 19 subjects who completed the study were evaluated for MIF level before treatment and after treatment with ibudilast. • Mean (SD) pre-treatment serum MIF=422,989 (233,440) pg/ml • Mean (SD) post-treatment serum MIF=300,922 (113,843) pg/ml • Mean (SE) change/month=−19, 845 (8934) pg/ml (p=0.03)

The test system of data set [2] is migration inhibitory factor (MIF). The experiment in a line: Randomized, double-blind, placebo-controlled study in COVID-19 subjects at risk for ARDS: plasma MIF level.
Procedure: The study consisted of a Screening Phase followed by a Treatment and Follow-up Phase. Following the Screening Phase, if the subject met eligibility criteria, subject was administered treatment with ibudilast or placebo. Subjects received ibudilast 100 mg/d (50 mg b.i.d) or placebo every day for 7 days. Upon completion of the 7-day Treatment Phase, subject was followed-up at Day 14 and at Day 28 post baseline.
The following screening assessments were performed upon signing the ICF: inclusion/exclusion criteria review, physical examination, assess vital signs and O2 use, clinical status using the NIAID scale, ECG, draw blood for plasma cytokines that include: migration inhibitory factor (MIF), interleukin 1-beta (IL-1β), interleukin 6 (IL-6), tumor necrosis factor (TNF-α), and C-reactive protein (CRP). Pharmacokinetic (PK) samples, complete blood count (CBC), comprehensive metabolic panel (CMP), D-dimer, and coagulation tests were also be drawn.
On Day 1 (Baseline) of the Treatment Phase, hospitalized subjects were treated with ibudilast (oral, 50 mg (5 capsules) b.i.d) or placebo for a 7-day period. Subjects underwent study-related procedures including physical examination, vital signs, clinical status assessment using the NIAID scale, O2 use, ECG, blood collection of biomarkers, PK, CBC, CMP, D-dimer and coagulation and information on adverse events and concomitant medications were recorded.
The Follow-up Phase consisted of two visits, Day 14 (±3 d) and Day 28 (±3 d). • Day 14 (in-patient): On Day 14, conducted physical examination, clinical status, vital signs and O2 use, ECG, CBC, CMP, D-dimer, and coagulation tests, biomarkers, AE and conmed review, and recorded survival status. • Day 28 (telephone follow-up if patient was no longer hospitalized) On Day 28, clinical status and survival status were recorded.
The mark [3] stands for this setting: COVID-19 subject A, ibudilast oral 50 mg b.i.d. for 7 days.
Where [4] appears, read: COVID-19 subject B, ibudilast oral 50 mg b.i.d. for 7 days.
[5] abbreviates: COVID-19 subject C, ibudilast oral 50 mg b.i.d. for 7 days.
The mark [6] stands for this setting: COVID-19 subject D, ibudilast oral 50 mg b.i.d. for 7 days.
[7] abbreviates: mean of 4 COVID-19 subjects, ibudilast oral 50 mg b.i.d. for 7 days.

SMILES strings stand for the structures.

As to `CC(C)C(=O)c1c(C(C)C)nn2ccccc12` [ibudilast, 2-methyl-1-(2-(1-methylethyl)pyrazolo(1,5-a)pyridin-3-yl)1-propanone], in data set [1], the CNS penetration result is “good CNS penetration”. Further, in the data set with MIF (after ibudilast oral 50 mg b.i.d. (100 mg/day), 36 weeks Treatment Phase), the “Mean (SD) post-treatment serum MIF” value is given as 300,922 (113,843) pg/ml. Moreover, the “Mean (SD) pre-treatment serum MIF” value in the data set with MIF (before treatment) is reported as 422,989 (233,440) pg/ml. For the same compound, in data set [2] (4 ibudilast vs 4 placebo COVID-19 subjects, p value=0.00552), the “Difference of mean change of MIF level between ibudilast-treated group and placebo group” value turned out to be 17277 pg/mL. In addition, the “Plasma MIF level pre-treatment, Subject A” value in data set [2] (COVID-19 subject A, ibudilast-treated group, before treatment) is given as 25267 pg/mL. Further, in data set [2] (setting [3]), the “Plasma MIF level difference (post minus pre), Subject A” value is -11130 pg/mL and the “Plasma MIF level post-treatment, Subject A” value is 14137 pg/mL. In addition, the “Plasma MIF level pre-treatment, Subject B” value in data set [2] (COVID-19 subject B, ibudilast-treated group, before treatment) is on record as 21130 pg/mL. Besides, in data set [2] (setting [4]), the “Plasma MIF level difference (post minus pre), Subject B” value was -1497 pg/mL and the “Plasma MIF level post-treatment, Subject B” value was determined as 19633 pg/mL. The “Plasma MIF level pre-treatment, Subject C” value in data set [2] (COVID-19 subject C, ibudilast-treated group, before treatment) came to 17763 pg/mL. Also, in data set [2] (setting [5]), the “Plasma MIF level difference (post minus pre), Subject C” value is -12037 pg/mL and the “Plasma MIF level post-treatment, Subject C” value is 5726 pg/mL. In data set [2] (COVID-19 subject D, ibudilast-treated group, before treatment), the “Plasma MIF level pre-treatment, Subject D” value came to 27005 pg/mL. Also, in data set [2] (setting [6]), the “Plasma MIF level difference (post minus pre), Subject D” value is -18433 pg/mL and the “Plasma MIF level post-treatment, Subject D” value is listed as 8572 pg/mL. Besides, the “Mean pre-treatment plasma MIF level” value in data set [2] (mean of 4 COVID-19 subjects, ibudilast-treated group, before treatment) is given as 22791.3 pg/mL. For the same compound, in data set [2] (setting [7]), the “Mean change MIF level” value was -110774.3 pg/mL and the “Mean post-treatment plasma MIF level” value worked out at 12017 pg/mL. For the same compound, the “Mean change MIF level” value in data set [2] (mean of 4 COVID-19 subjects, ibudilast oral 50 mg b.i.d. for 7 days, listed as Ibudilast) was -10774.3 pg/mL.

The values are drawn from US12213966B2, “Methods of reducing plasma level of macrophage migratory inhibitory factor in patients” (priority 2020, dated 2025).
